Laboratory results: patent US11998589B2, “PEGylated peptide amphiphile nanofibers and methods of use” (Northwestern University, priority 2020, dated 2024)
Square brackets hold non-standard residues; d marks the D form. Peptide text beside a SMILES is read from it. * marks the point of attachment. PEG10 = NCCOCCOCCOCCOCCOCCOCCOCCOCCOCCOCCC(=O)O; Palmitoyl = CCCCCCCCCCCCCCCC(=O)*

Key:
[1] = Cytotoxicity (calcein / ethidium homodimer live-dead staining); format: cell-based; details: human, nHLF cultures, 36 hours culture; for viability at 36 h: normal human lung fibroblasts (nHLF), up to 100 μM PA, read-out: cells staining positive for calcein (percent viable cells)
Description: Cytotoxicity: Normal Human Lung Fibroblasts were obtained from Lonza and maintained in growth medium consisting of DMEM with 10% fetal bovine serum (FBS) and 1% penicillin/streptomycin. Cells (passage 5) were tryspinized and resuspended in media containing 2% FBS and 150 μl of the cell suspension was added to each well of a 96 well microplate for a total of 2,500 cells per well. After 2 hours attachment, 50 μl PA solutions diluted in PBS to 4 μM, 20 μM, 100 μM, or 400 μM were added to each well. After 36 hours culture, the media was removed and replaced with a solution of 2 μM calcein and 4 μM ethidium homodimer in PBS. After 30 minutes, cells were imaged using a Cytation 3 microplate reader. Live and Dead cells were counted using the MATLAB image Processing Toolbox to determine viability.

[2] = Nile red assay of aggregation; format: physicochemical; details: buffers of 0 mM, 15 mM and 150 mM NaCl
Description: Nile Red Assay: Following heat treatment, PA solutions were serially diluted in water (0 mM NaCl), or a buffer of 15 mM NaCl, or 150 mM NaCl. A solution of 100 μM Nile red was added to the PA solutions to one thousandth the total volume and incubated for 1 hour. The fluorescence spectrum was read from 600 nm to 700 nm using a BioTek Cytation 3 microplate reader using 560 nm excitation and the fluorescence shift was determined by subtracting the maximum […] wavelength for each sample from that of the dye solution diluted in each buffer alone.

[3] = Zeta potential of PA solutions; format: physicochemical; details: for surface charge (zeta-potential), sign: neutral pH
Description: Zeta potential: Heat-treated PA solutions were diluted 20 times in 30 mM NaCl with 10 mM HCl, 30 mM NaCl, or 30 mM NaCl with 10 mM NaOH for pH 2, pH 7, and pH 12 respectively. For each PA, three separate samples were prepared at each pH. Samples were loaded in a disposable folded capillary cell and zeta-potential was measured at 25° C. using a Zetasizer Nano ZS (Malvern Instruments, Malvern, UK). The average of the three measurements for each sample was plotted.

[4] = test system: Human mesenchymal stem cells; assay: Alkaline phosphatase (ALP) activity, osteogenic differentiation; format: cell-based; details: human MSCs, one week
Description: Alkaline Phosphatase Activity: Human mesenchymal stem cells were obtained from Lonza and maintained in Mesenchymal Stem Cell Growth Media (Lonza). Cells were used for experiments prior to passage 6. Cells were trypsinized and resuspended in growth media containing high glucose DMEM supplemented with 10% FBS and 1% penicillin/streptomycin and 50 mg/L sodium ascorbate. 500 μl of the cell suspension was placed in each well of a 24 well plate and incubated for 24 hours. Media was removed and replaced with 540 μl of growth media or osteogenic media containing low glucose DMEM supplemented with 10% FBS, 50 mg/L sodium ascorbate 10 mM 3-glycerophosphate, and 100 nM dexamethasone. 60 μl of a 10 times concentrated PA solution in PBS was then added to each well. Every 3-4 days, media was replaced by removing 300 μl media and adding 270 μl growth media or osteogenic media and 30 μl of the 10 times concentrated PA solution in PBS. Alkaline phosphatase (ALP) activity was determined using the SensoLyte pNPP ALP Assay Kit (Anaspec, Fremont, CA) according to the manufacturer's instructions. […] The supernatant was mixed with the assay's detection buffer in a microplate and the optical absorbance was read after a four-hour incubation using a Cytation 3 microplate reader. […]

[5] = Resuspension of purified PA in water; format: physicochemical; details: purified molecule in water
Description: Solubilization and Heat Treatment: PA powders were resuspended to 10 mM in water for experiments at pH 7, in 10 mM hydrochloric acid for pH 2 and 10 mM sodium hydroxide for pH 12. After resuspension, 1 M sodium hydroxide or 1 M hydrogen chloride were added to achieve the desired pH. To co-assemble PA molecules, PA solutions were mixed volumetrically, bath sonicated for 1 hour and then left on the bench to age for at least 2 hours. A solution of 150 mM NaCl was added to all samples to achieve a final NaCl concentration of 30 mM. All samples were heat treated at 80° C. for 30 minutes followed by gradual cooling by 1° C. per minute to 25° C.
To produce PA filaments without ionic charge, a short PEG chain was substituted for the ionizable amino acids typically included in PA molecules to maintain solubility of the PA in an aqueous environment. To form an uncharged PA filament, the sequence N-palmitoyl-VVAA was chosen as the aliphatic tail and hydrogen bonding peptide. As the hydrophilic domain, a 10-mer PEG amino acid was selected, which was hypothesized to be long enough to solubilize the PA while limiting steric repulsion among assembled molecules (PA1, FIG. 2A). The PA was synthesized by coupling the PEG amino acid to a rink-amide resin and completing the peptide using standard Fmoc solid phase peptide synthesis, leaving an uncharged amide group after cleavage from the resin. […]

Row | Molecule | aggregation as indicated by redshift in Nile red fluorescence, dependence on ionic strength [2] | surface charge (zeta-potential), sign [3] | viability at 36 h [1] [%] | further results
1 | CCCCCCCCCCCCCCCC(=O)N[C@H](C(=O)N[C@H](C(=O)N[C@@H](C)C(=O)N[C@@H](C)C(=O)N[C@@H](CCCCN)C(=O)N[C@@H](CCCCN)C(N)=O)C(C)C)C(C)C [PA3] (Palmitoyl-VVAAKK-NH2) | less dependent on ionic strength than PA2 | positively charged |  | EC50 at 36 h ([1]; Normal Human Lung Fibroblasts (nHLF)): 25 ± 4 µM
2 | N-palmitoyl-VVAAKK-PEGio [PA5] |  |  |  | Zeta-potential (surface charge) ([3]; pH 12): ~0 mV
3 | CCCCCCCCCCCCCCCC(=O)N[C@H](C(=O)N[C@H](C(=O)N[C@@H](C)C(=O)N[C@@H](C)C(=O)N[C@@H](CCC(=O)O)C(=O)N[C@@H](CCC(=O)O)C(N)=O)C(C)C)C(C)C [PA2] (Palmitoyl-VVAAEE-NH2) | depended on ionic strength of the buffer | negatively | > 85 | ALP activity (osteogenic differentiation) in growth media ([4]; growth media, various PA concentrations): increased with increasing PA2 concentration; ALP activity (osteogenic differentiation) in osteogenic media ([4]; osteogenic media with dexamethasone and β-glycerophosphate): did not affect differentiation
4 | N-palmitoyl-VVAAEE-PEG10 [PA4] |  |  |  | Zeta-potential (surface charge) ([3]; pH 2): ~0 mV
5 | CCCCCCCCCCCCCCCC(=O)N[C@H](C(=O)N[C@H](C(=O)N[C@@H](C)C(=O)N[C@@H](C)C(=O)NCCOCCOCCOCCOCCOCCOCCOCCOCCOCCOCCC(N)=O)C(C)C)C(C)C [PA1] (Palmitoyl-VVAA[PEG10]-NH2) |  |  | > 85 | solubility in water (resuspension) [5]: readily resuspended in water
